Experimental data as given in article PMC11284896 (Journal of Translational Internal Medicine, 2024).

Molecular target: T1, ABCG2 (Homo sapiens, UniProt Q9UNQ0)
T1 sequence (Q9UNQ0 1-655): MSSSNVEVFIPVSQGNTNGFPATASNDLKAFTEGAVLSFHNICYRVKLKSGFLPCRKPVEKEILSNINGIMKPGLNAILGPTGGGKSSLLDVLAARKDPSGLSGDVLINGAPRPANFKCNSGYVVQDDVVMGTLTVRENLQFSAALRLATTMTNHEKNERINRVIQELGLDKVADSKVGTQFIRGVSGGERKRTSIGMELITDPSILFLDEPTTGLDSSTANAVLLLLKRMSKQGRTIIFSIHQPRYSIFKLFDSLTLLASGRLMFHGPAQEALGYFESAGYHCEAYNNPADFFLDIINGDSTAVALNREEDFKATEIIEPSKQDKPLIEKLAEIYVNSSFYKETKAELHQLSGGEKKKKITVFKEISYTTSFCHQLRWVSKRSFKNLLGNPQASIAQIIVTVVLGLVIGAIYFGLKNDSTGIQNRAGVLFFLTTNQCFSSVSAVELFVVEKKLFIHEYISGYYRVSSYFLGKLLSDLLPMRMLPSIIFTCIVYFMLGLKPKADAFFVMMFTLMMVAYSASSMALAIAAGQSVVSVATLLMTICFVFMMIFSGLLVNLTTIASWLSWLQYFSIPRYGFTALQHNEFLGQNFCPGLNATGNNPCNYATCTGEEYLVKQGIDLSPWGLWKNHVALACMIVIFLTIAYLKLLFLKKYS

O=C1c2c(O)ccc(O)c2C(=O)c2c(NCCNCCO)ccc(NCCNCCO)c21 [mitoxantrone]
radiolabelled substrate efflux and accumulation in ABCG2-overexpressing NCI-H460: the efflux of [^3H]-mitoxantrone from cells overexpressed ABCG2 transporter was considerably diminished in the presence of RN486
